According to patent US12448388B2, “PRMT5 inhibitors and uses thereof” (Gilead Sciences, Inc., priority 2023, dated 2025):
Read-outs that look alike come from different tables or passages of the source.

System: HCT116 MTAP-deleted cell lines
Assay: Cell viability assay (CellTiter-Glo, 7 days), HCT116 MTAP-deleted
Assay type: cell-based
Conditions: Homo sapiens, HCT-116, HCT116 MTAP-deleted, class symbols, read-out: CC50
Description: Control compounds were analyzed in parallel each time for quality control. In Brief, on Day -1, a serial dilution of stock compounds in DMSO was performed using BioMek liquid handlers and dispensed using Echo acoustic dispenser into 384 well plates. Both tool compounds and sample compounds were spotted in the same plate for a dose response of PRMT5 inhibitors. Compound plates were stored as frozen until the cells were ready for seeding. […] After equilibrating the plate in room temperature, the cells were incubated for 7 days inside the sealed incubator set at 37° C. with 90% humidity and 5% CO2. On Day 7, the viability of cells was measured using a CTG assay kit (CellTitre-Glo;Promega cat no. G7573). Shortly, 40 μl per well of luminescent cell viability assay reagent were dispensed using EL460 liquid dispenser 5 μl cassette. CTG luminescence signal was measured using an EnVision plate reader (PerkinElmer) in accordance with manufacturer's instruction. […] Selectivity with * is artificially high due to limited solubility of the compound hampering accurate measurement of WT CC50.

SMILES	CC50 (cell viability) [nM]	CC50 (cell viability assay) [nM]
C[C@H]1CN(C(=O)c2cc3c(cn2)nc(N)c2cncn23)[C@H]2c3cc(F)c(OC(F)(F)F)cc3C[C@H]2O1 (single isomer, unassigned) [Ff-196]	< 100	–
CN(C(=O)c1cc2c(cc1F)nc(N)c1cncn12)[C@@H]1COc2cc(C(C)(F)F)ccc21 [Ff-337, (S)-4-amino-N-(6-(1,1-difluoroethyl)-2,3-dihydrobenzofuran-3-yl)-7-fluoro-N-methylimidazo[1,5-a]quinoxaline-8-carboxamide]	< 100	–
Nc1nc2cc(F)c(C(=O)N3CCC(F)(F)C[C@@H]3c3ccc(OC(F)(F)F)cc3)cc2n2cncc12 [Ff-403, (R)-(4-amino-7-fluoroimidazo[1,5-a]quinoxalin-8-yl)(4,4-difluoro-2-(4-(trifluoromethoxy)phenyl)piperidin-1-yl)methanone]	–	100 to 1000
Nc1nc2cc(F)c(C(=O)N3CCCC[C@@H]3c3ccc(C(F)(F)F)cc3)cc2n2cncc12 [Ff-139, (R)-(4-amino-7-fluoroimidazo[1,5-a]quinoxalin-8-yl)(2-(4-(trifluoromethyl)phenyl)piperidin-1-yl)methanone]	< 100	–
CN(C(=O)c1cc2c(cc1F)nc(N)c1cncn12)[C@@H]1COc2cc(C#CC(C)(C)C#N)ccc21 [Ff-439, 4-amino-N-[(3S)-6-(3-cyano-3-methyl-but-1-ynyl)-2,3-dihydrobenzofuran-3-yl]-7-fluoro-N-methyl-imidazo[1,5-a]quinoxaline-8-carboxamide]	–	< 100
Nc1nc2ccc(C(=O)N(Cc3ccc(C(F)(F)F)cn3)C34COC(C3)C4)cc2n2cncc12 [Ff-267, 4-amino-N-(2-oxabicyclo[2.1.1]hexan-4-yl)-N-((5-(trifluoromethyl)pyridin-2-yl)methyl)imidazo[1,5-a]quinoxaline-8-carboxamide]	100 to 1000	–
CC1(C)C[C@@H]2Oc3cc(OC(F)(F)F)ccc3[C@@H]2N(C(=O)c2cc3c(cn2)nc(N)c2cncn23)C1 (racemic) [Ff-262, Rac-(4-aminoimidazo[1,5-a]pyrido[3,4-e]pyrazin-8-yl)((4aS,9bS)-3,3-dimethyl-7-(trifluoromethoxy)-3,4,4a,9b-tetrahydrobenzofuro[3,2-b]pyridin-1(2H)-yl)methanone]	100 to 1000	–
Cn1nccc1-c1ccc(CN(C(=O)c2cc3c(cc2F)nc(N)c2cncn23)C23CC(C2)C3)c(F)c1 [Ff-219, 4-amino-N-(bicyclo[1.1.1]pentan-1-yl)-7-fluoro-N-(2-fluoro-4-(1-methyl-1H-pyrazol-5-yl)benzyl)imidazo[1,5-a]quinoxaline-8-carboxamide]	< 100	–
CN(C(=O)c1cc2c(cc1C#N)nc(N)c1cncn12)[C@@H]1COc2cc(C(F)(F)F)ccc21 [Ff-490, (S)-4-amino-7-cyano-N-methyl-N-(6-(trifluoromethyl)-2,3-dihydrobenzofuran-3-yl)imidazo[1,5-a]quinoxaline-8-carboxamide]	–	< 100
CN(C(=O)c1cc2c(cc1F)nc(N)c1cncn12)[C@@H]1CCc2cc([C@@H]3C[C@H]3C#N)ccc21 [Ff-434, Trans-4-amino-N-[(1R)-5-(2-cyanocyclopropyl)indan-1-yl]-7-fluoro-N-methyl-imidazo[1,5-a]quinoxaline-8-carboxamide]	–	< 100
CN(C(=O)c1ccc2nc(N)c3cncn3c2c1)[C@@H]1COc2cc(C#CC34CCC(CC3)O4)ccc21 [Ff-528, (S)—N-(6-((7-oxabicyclo[2.2.1]heptan-1-yl)ethynyl)-2,3-dihydrobenzofuran-3-yl)-4-amino-N-methylimidazo[1,5-a]quinoxaline-8-carboxamide]	–	100 to 1000
CN(C(=O)c1cc2c(cc1F)nc(N)c1cncn12)[C@@H]1COc2cc(C34CC(C3)C4)ccc21 [Ff-444, 4-amino-N-[(3S)-6-(1-bicyclo[1.1.1]pentanyl)-2,3-dihydrobenzofuran-3-yl]-7-fluoro-N-methyl-imidazo[1,5-a]quinoxaline-8-carboxamide]	–	< 100
COCc1cc(C(F)(F)F)ccc1CN(C)C(=O)c1ccc2nc(N)c3cncn3c2c1 [Ff-126, 4-amino-N-(2-(methoxymethyl)-4-(trifluoromethyl)benzyl)-N-methylimidazo[1,5-a]quinoxaline-8-carboxamide]	100 to 1000	–
CN(C(=O)c1cc2c(cc1F)nc(N)c1cncn12)C1CSc2ccccc21 (stereo not shown) [Ff-456, 4-amino-N-(2,3-dihydrobenzo[b]thiophen-3-yl)-7-fluoro-N-methylimidazo[1,5-a]quinoxaline-8-carboxamide]	–	100 to 1000
Nc1nc2cc(F)c(C(=O)N(Cc3ccc(-c4cnn(C(F)F)c4)cn3)C34CC(C3)C4)cc2n2cncc12 [Ff-212, 4-amino-N-(bicyclo[1.1.1]pentan-1-yl)-N-((5-(1-(difluoromethyl)-1H-pyrazol-4-yl)pyridin-2-yl)methyl)-7-fluoroimidazo[1,5-a]quinoxaline-8-carboxamide]	< 100	–
Cc1ncc2c(N)nc3ccc(C(=O)N4C[C@@H](C)O[C@@H]5Cc6cc(C(F)(F)F)ccc6[C@@H]54)cc3n12 [Ff-631, (4-amino-1-methylimidazo[1,5-a]quinoxalin-8-yl)((2R,4aS,9aR)-2-methyl-7-(trifluoromethyl)-2,3,9,9a-tetrahydroindeno[2,1-b][1,4]oxazin-4(4aH)-yl)methanone]	–	100 to 1000
Cc1ncc2c(N)nc3cnc(C(=O)N4C[C@@H](F)C[C@@H]5Oc6cc(OC(F)(F)F)ccc6[C@@H]54)cc3n12 [Fg-45, (4-amino-1-methylimidazo[1,5-a]pyrido[3,4-e]pyrazin-8-yl)((3S,4aS,9bS)-3-fluoro-7-(trifluoromethoxy)-3,4,4a,9b-tetrahydrobenzofuro[3,2-b]pyridin-1(2H)-yl)methanone]	–	< 100
Cc1ncc2c(N)nc3cc(F)c(C(=O)N4C[C@@H](F)C[C@@H]5Oc6cc(C(F)(F)F)ccc6[C@@H]54)cc3n12 [Ff-657, (4-amino-7-fluoro-1-methylimidazo[1,5-a]quinoxalin-8-yl)((3S,4aS,9bS)-3-fluoro-7-(trifluoromethyl)-3,4,4a,9b-tetrahydrobenzofuro[3,2-b]pyridin-1(2H)-yl)methanone]	–	< 100
CS(=O)(=O)N1CCN(C(=O)c2cc3c(cc2F)nc(N)c2cncn23)C(c2ccc(C(F)(F)F)cn2)C1 (stereo not shown) [Ff-135, (4-amino-7-fluoroimidazo[1,5-a]quinoxalin-8-yl)(4-(methylsulfonyl)-2-(5-(trifluoromethyl)pyridin-2-yl)piperazin-1-yl)methanone]	100 to 1000	–
Cc1ncn2c1c(N)nc1cc(Cl)c(C(=O)N3CCC[C@@H]4Oc5nc(C(F)(F)F)ccc5[C@@H]43)cc12 [Ff-364, (4-amino-7-chloro-3-methylimidazo[1,5-a]quinoxalin-8-yl)((4aS,9bS)-7-(trifluoromethyl)-3,4,4a,9b-tetrahydrofuro[2,3-b:4,5-b′]dipyridin-1(2H)-yl)methanone]	< 100	–
CN(C(=O)c1cc2c(cn1)nc(N)c1cncn12)[C@@H]1COc2cc(C34CC(C(F)(F)F)(C3)C4)ccc21 [Ff-642, (S)-4-amino-N-methyl-N-(6-(3-(trifluoromethyl)bicyclo[1.1.1]pentan-1-yl)-2,3-dihydrobenzofuran-3-yl)imidazo[1,5-a]pyrido[3,4-e]pyrazine-8-carboxamide]	–	100 to 1000
Nc1nc2cc(F)c(C(=O)N(Cc3ccc4ncsc4c3)C34CC(C3)C4)cc2n2cncc12 [Ff-52, 4-amino-N-(benzo[d]thiazol-6-ylmethyl)-N-(bicyclo[1.1.1]pentan-1-yl)-7-fluoroimidazo[1,5-a]quinoxaline-8-carboxamide]	100 to 1000	–
